Test results taken from patent US8008291B2 (Mimetica Pty Ltd, priority 2008, dated 2011).

target: T1, human MC5R (hMC5R) (Homo sapiens, UniProt P33032); test: Human MC5R radioligand binding assay (membranes, [125I] NDP-MSH displacement); settings: hMC5R binding; tested as trifluoroacetate or hydrochloride salts, or free bases; read-out: MC5R radioligand IC50
T1 construct: purchased Perkin Elmer RBXMC5M400UA
Outline: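 Frozen human MC5R membranes incubated with test compound and in-house iodogen-labeled, HPLC-purified [125I]NDP-MSH for 1 hr at 37° C. Binding measured as displacement of the radioligand.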

T1 sequence (P33032 whole entry): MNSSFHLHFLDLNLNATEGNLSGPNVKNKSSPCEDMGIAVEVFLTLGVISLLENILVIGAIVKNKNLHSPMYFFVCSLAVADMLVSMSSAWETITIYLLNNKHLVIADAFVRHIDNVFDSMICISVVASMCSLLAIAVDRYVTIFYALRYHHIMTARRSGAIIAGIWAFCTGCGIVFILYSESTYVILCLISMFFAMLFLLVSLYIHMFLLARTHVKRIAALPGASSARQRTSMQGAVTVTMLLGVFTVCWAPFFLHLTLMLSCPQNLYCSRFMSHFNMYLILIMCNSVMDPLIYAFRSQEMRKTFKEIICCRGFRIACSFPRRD

IC50 | Structure (SMILES)
< 10 nM | CC[C@H](CN1CC[C@@H](CNC(=O)c2ccc3cc(Cl)ccc3c2)N[C@@H](CCNC(C)C)C1=O)c1ccccc1 [Compound 440, 6-chloro-N-(((3S,5S)-3-(2-(isopropylamino)ethyl)-2-oxo-1-((S)-2-phenylbutyl)-1,4-diazepan-5-yl)methyl)-2-naphthamide]
< 1000 nM | N=C(N)NCCC[C@@H]1N[C@H](CNC(=O)c2ccc3ccccc3c2)CCN(CCC2CCCCC2)C1=O [Compound 242, N-(((3S,5S)-1-(2-cyclohexylethyl)-3-(3-guanidinopropyl)-2-oxo-1,4-diazepan-5-yl)methyl)-2-naphthamide]
< 10 nM | CC[C@H](CN1CC[C@@H](CNC(=O)c2ccc(Cl)c(Cl)c2)N[C@@H](CCN2CCC(C)CC2)C1=O)c1ccccc1 [Compound 446, 3,4-dichloro-N-(((3S,5S)-3-(2-(4-methylpiperidin-1-yl)ethyl)-2-oxo-1-((S)-2-phenylbutyl)-1,4-diazepan-5-yl)methyl)benzamide]
< 100 nM | CC[C@@H](CN1CC[C@@H](CNC(=O)c2ccc3ccccc3c2)N[C@@H](CCN2CCCCC2)C1=O)c1ccccc1 [Compound 39, N-(((3S,5S)-2-oxo-1-((R)-2-phenylbutyl)-3-(2-(piperidin-1-yl)ethyl)-1,4-diazepan-5-yl)methyl)-2-naphthamide]
< 100 nM | CC[C@H](CN1CCC(CNC(=O)c2ccc3cc(Cl)ccc3c2)NC(C2CCNCC2)C1=O)c1ccccc1 (stereo partly drawn) [Compound 447, (S)-6-chloro-N-((2-oxo-1-(2-phenylbutyl)-3-(piperidin-4-yl)-1,4-diazepan-5-yl)methyl)-2-naphthamide]
< 1000 nM | O=C(NC[C@@H]1CCN(CC(c2ccccc2)c2ccccc2)C(=O)[C@H](CCN2CCCCC2)N1)OCc1ccccc1 [Compound 412, benzyl ((3S,5S)-1-(2,2-diphenylethyl)-2-oxo-3-(2-(piperidin-1-yl)ethyl)-1,4-diazepan-5-yl)methylcarbamate]
< 100 nM | O=C(NC[C@@H]1CCN(CC(c2ccccc2)c2ccccc2)C(=O)[C@H](CCCN2CCCC2)N1)c1ccc2ccccc2c1 [Compound 261, N-(((3S,5S)-1-(2,2-diphenylethyl)-2-oxo-3-(3-(pyrrolidin-1-yl)propyl)-1,4-diazepan-5-yl)methyl)-2-naphthamide]
< 100 nM | CCC(CC)CN1CC[C@@H](CNC(=O)c2ccc3cc(Cl)ccc3c2)N[C@@H](CCN2CCCCC2)C1=O [Compound 373, 6-chloro-N-(((3S,5S)-1-(2-ethylbutyl)-2-oxo-3-(2-(piperidin-1-yl)ethyl)-1,4-diazepan-5-yl)methyl)-2-naphthamide]
< 100 nM | CCC(CN1CC[C@@H](CNC(=O)c2ccc3cc(Cl)ccc3c2)N[C@@H](CCN2CCCCC2)C1=O)C1CC1 (stereo partly drawn) [Compound 488, 6-chloro-N-(((3S,5S)-1-(2-cyclopropylbutyl)-2-oxo-3-(2-(piperidin-1-yl)ethyl)-1,4-diazepan-5-yl)methyl)-2-naphthamide]
< 10000 nM | CC[C@H](CN1CC[C@@H](CNC(=O)c2ccc(Cl)c(Cl)c2)N[C@@H](CCN2C(=O)CCC2=O)C1=O)c1ccccc1 [Compound 489, 3,4-dichloro-N-(((3S,5S)-3-(2-(2,5-dioxopyrrolidin-1-yl)ethyl)-2-oxo-1-((S)-2-phenylbutyl)-1,4-diazepan-5-yl)methyl)benzamide]
< 10000 nM | CC[C@@H](CN1CC[C@@H](CNC(=O)c2ccc3ccccc3c2)N[C@@H](CCCN)C1=O)c1ccccc1 [Compound 390, N-(((3S,5S)-3-(3-aminopropyl)-2-oxo-1-((R)-2-phenylbutyl)-1,4-diazepan-5-yl)methyl)-2-naphthamide]
< 1000 nM | CCC(CC)CN1CC[C@@H](CNC(=O)/C=C/c2ccc(Cl)cc2)N[C@@H](CCN)C1=O [Compound 330, (E)-N-(((3S,5S)-3-(2-aminoethyl)-1-(2-ethylbutyl)-2-oxo-1,4-diazepan-5-yl)methyl)-3-(4-chlorophenyl)acrylamide]
< 100 nM | N=C(N)NCCC[C@@H]1N[C@H](CNC(=O)c2ccc(-c3ccccc3)cc2)CCN(CC(c2ccccc2)c2ccccc2)C1=O [Compound 108, N-(((3S,5S)-1-(2,2-diphenylethyl)-3-(3-guanidinopropyl)-2-oxo-1,4-diazepan-5-yl)methyl)biphenyl-4-carboxamide]
< 1000 nM | CCC(CC)CN1CC[C@@H](CNC(=O)c2ccc3cc(Br)ccc3c2)N[C@@H](CCN)C1=O [Compound 371, N-(((3S,5S)-3-(2-aminoethyl)-1-(2-ethylbutyl)-2-oxo-1,4-diazepan-5-yl)methyl)-6-bromo-2-naphthamide]
< 100 nM | CC[C@H](CN1CC[C@@H](CNC(=O)/C=C/c2ccc(Cl)cc2)N[C@@H](CCNC(C)C)C1=O)c1ccccc1 [Compound 408, (E)-3-(4-chlorophenyl)-N-(((3S,5S)-3-(2-(isopropylamino)ethyl)-2-oxo-1-((S)-2-phenylbutyl)-1,4-diazepan-5-yl)methyl)acrylamide]
< 1000 nM | NCCC[C@@H]1N[C@H](CNC(=O)c2ccc3ccccc3c2)CCN(Cc2cc(F)cc(Cl)c2)C1=O [Compound 312, N-(((3S,5S)-3-(3-aminopropyl)-1-(3-chloro-5-fluorobenzyl)-2-oxo-1,4-diazepan-5-yl)methyl)-2-naphthamide]

The remaining lines, values behind:

Structure (SMILES) | IC50
CC(CN1CC[C@@H](CNC(=O)c2ccc3ccccc3c2)N[C@@H](CCCNC(=N)N)C1=O)(c1ccccc1)c1ccccc1 [Compound 200, N-(((3S,5S)-1-(2,2-diphenylpropyl)-3-(3-guanidinopropyl)-2-oxo-1,4-diazepan-5-yl)methyl)-2-naphthamide] | < 1000 nM
CCCCCN(C)CC[C@@H]1N[C@H](CNC(=O)c2ccc(Cl)c(Cl)c2)CCN(C[C@@H](CC)c2ccccc2)C1=O [Compound 444, 3,4-dichloro-N-(((3S,5S)-3-(2-(methyl(pentyl)amino)ethyl)-2-oxo-1-((S)-2-phenylbutyl)-1,4-diazepan-5-yl)methyl)benzamide] | < 100 nM
CC1CC(C)CC(CN2CC[C@@H](CNC(=O)c3ccc(Cl)c(Cl)c3)N[C@@H](CCNC(C)C)C2=O)C1 (stereo partly drawn) [Compound 387, 3,4-dichloro-N-(((3S,5S)-1-((3,5-dimethylcyclohexyl)methyl)-3-(2-(isopropylamino)ethyl)-2-oxo-1,4-diazepan-5-yl)methyl)benzamide] | < 1000 nM
C[C@@H](CN1CC[C@@H](CNC(=O)c2ccc3ccccc3c2)N[C@@H](CCCN)C1=O)c1ccccc1 [Compound 357, N-(((3S,5S)-3-(3-aminopropyl)-2-oxo-1-((R)-2-phenylpropyl)-1,4-diazepan-5-yl)methyl)-2-naphthamide] | < 10000 nM
CC[C@H](CN1CC[C@@H](CNC(=O)c2ccc(Cl)c(Cl)c2)N[C@@H](CCN2CCOCC2)C1=O)c1ccccc1 [Compound 427, 3,4-dichloro-N-(((3S,5S)-3-(2-morpholinoethyl)-2-oxo-1-((S)-2-phenylbutyl)-1,4-diazepan-5-yl)methyl)benzamide] | < 100 nM
CC[C@H](CN1CC[C@@H](CNC(=O)c2ccc(Cl)c(Cl)c2)N[C@@H](CCNC(C)C(F)(F)F)C1=O)c1ccccc1 (stereo partly drawn) [Compound 491, 3,4-dichloro-N-(((3S,5S)-2-oxo-1-((S)-2-phenylbutyl)-3-(2-(1,1,1-trifluoropropan-2-ylamino)ethyl)-1,4-diazepan-5-yl)methyl)benzamide] | < 1000 nM
CC[C@H](CN1CC[C@@H](CNC(=O)c2ccc(Cl)c(Cl)c2)N[C@@H](CCN(CC)CC)C1=O)c1ccccc1 [Compound 426, 3,4-dichloro-N-(((3S,5S)-3-(2-(diethylamino)ethyl)-2-oxo-1-((S)-2-phenylbutyl)-1,4-diazepan-5-yl)methyl)benzamide] | < 100 nM
O=C(/C=C/c1ccc(Br)cc1)NC[C@@H]1CCN(CC(c2ccccc2)c2ccccc2)C(=O)[C@H](CCN2CCCCC2)N1 [Compound 413, (E)-3-(4-bromophenyl)-N-(((3S,5S)-1-(2,2-diphenylethyl)-2-oxo-3-(2-(piperidin-1-yl)ethyl)-1,4-diazepan-5-yl)methyl)acrylamide] | < 10 nM
CC[C@H](CN1CC[C@@H](CNC(=O)c2ccc(Cl)c(Cl)c2)N[C@@H](CCN2CCCC2)C1=O)c1ccccc1 [Compound 411, 3,4-dichloro-N-(((3S,5S)-2-oxo-1-((S)-2-phenylbutyl)-3-(2-(pyrrolidin-1-yl)ethyl)-1,4-diazepan-5-yl)methyl)benzamide] | < 100 nM
CC1CCC(C)N1CC[C@@H]1N[C@H](CNC(=O)/C=C/c2ccc(Cl)cc2)CCN(CC(c2ccccc2)c2ccccc2)C1=O (stereo partly drawn) [Compound 405, (E)-3-(4-chlorophenyl)-N-(((3S,5S)-3-(2-(2,5-dimethylpyrrolidin-1-yl)ethyl)-1-(2,2-diphenylethyl)-2-oxo-1,4-diazepan-5-yl)methyl)acrylamide] | < 100 nM
O=C(NCC[C@@H]1CCN(CC(c2ccccc2)c2ccccc2)C(=O)[C@H](CCN2CCCCC2)N1)c1ccc2ccccc2c1 [Compound 306, N-(2-((3S,5R)-1-(2,2-diphenylethyl)-2-oxo-3-(2-(piperidin-1-yl)ethyl)-1,4-diazepan-5-yl)ethyl)-2-naphthamide] | < 1000 nM
N=C(N)NCCC[C@@H]1N[C@H](CNC(=O)[C@H]2Cc3ccccc3CN2)CCN(CC(c2ccccc2)c2ccccc2)C1=O [Compound 134, (R)—N-(((3S,5S)-1-(2,2-diphenylethyl)-3-(3-guanidinopropyl)-2-oxo-1,4-diazepan-5-yl)methyl)-1,2,3,4-tetrahydroisoquinoline-3-carboxamide] | < 1000 nM
CC1CC(C)CC(CN2CC[C@@H](CNC(=O)c3ccc(Cl)c(Cl)c3)N[C@@H](CCN)C2=O)C1 (stereo partly drawn) [Compound 375, N-(((3S,5S)-3-(2-aminoethyl)-1-((3,5-dimethylcyclohexyl)methyl)-2-oxo-1,4-diazepan-5-yl)methyl)-3,4-dichlorobenzamide] | < 1000 nM
CCC(CN1CC[C@@H](CNC(=O)c2ccc3ccccc3c2)N[C@@H](CCCN2CCCCC2)C1=O)c1ccccc1 (stereo partly drawn) [Compound 342, N-(((3S,5S)-2-oxo-1-(2-phenylbutyl)-3-(3-(piperidin-1-yl)propyl)-1,4-diazepan-5-yl)methyl)-2-naphthamide] | < 100 nM
